Assay results: US9315459B2, “Crystalline forms of 4-[2-(4-methylphenylsulfanyl)-phenyl] piperidine” (priority 2006, dated 2016)

What was measured:
[1] = test system: extracellular levels of acetylcholine; test: Microdialysis, extracellular acetylcholine in prefrontal cortex and ventral hippocampus of freely-moving rats (Example 2G); assay type: in vivo, rat; settings: Sprague-Dawley rats, FIG. 25a+b
Description: The experiment was designed to evaluate the effects of compounds of the present invention on extracellular levels of acetylcholine in the prefrontal cortex and ventral hippocampus of freely-moving rats.
Male Sprague-Dawley rats, initially weighing 275-300 g, were used. The animals were housed under a 12-hr light/dark cycle under controlled conditions for regular in-door temperature (21±2° C.) and humidity (55±5%) with food and tap water available ad libitum.
Rats were anaesthetised with hypnorm/dormicum (2 ml/kg) and intracerebral guide cannulas (CMA/12) were stereotaxically implanted into the hippocampus, aiming to position the dialysis probe tip in the ventral hippocampus (co-ordinates: 5.6 mm posterior to bregma, lateral −5.0 mm, 7.0 mm ventral to dura or in the frontal cortex (co-ordinates: 3.2 mm anterior to bregma; lateral, 0.8 mm; 4.0 mm ventral to dura). Anchor screws and acrylic cement were used for fixation of the guide cannulas. The body temperature of the animals was monitored by rectal probe and maintained at 37° C. The rats were allowed to recover from surgery for 2 days, housed singly in cages. On the day of the experiment a microdialysis probe (CMA/12, 0.5 mm diameter, 3 mm length) was inserted through the guide cannula.
The probes were connected via a dual channel swivel to a microinjection pump. […]

[2] = test system: extracellular levels of acetylcholine; test: Microdialysis, extracellular acetylcholine in prefrontal cortex of freely-moving rats (Example 2F); assay type: in vivo, rat; settings: Wistar rats, s.c., FIG. 24
Description: The experiment was designed to evaluate the effects of compounds of the present invention on extracellular levels of acetylcholine in the prefrontal cortex of freely-moving rats.
Male Wistar rats (280-350 g; Harlan, Zeist, The Netherlands) were used for the experiments. Rats were individually housed in plastic cages (30×30×40 cm) and had ad libitum access to food and water.
Rats were anesthetized using isoflurane (2%, 400 mL/min N2O, 400 ml/min O2). Lidocain (10% m/v) was used for local anesthesia. […]
Experiments were carried out 24-48 hours after surgery. […] Samples were collected by an automated fraction collector (CMA 142), and stored at −80° C. until analyzed. […]
Concentrations of acetylcholine were determined by HPLC with tandem mass spectrometry (MS/MS) detection. […]
The LC/MS analyses were performed using an API 4000 MS/MS system consisting of an API 4000 MS/MS detector and a Turbo Ion Spray interface (both from Applied Biosystems, the Netherlands). […] Data were calibrated and quantitated using the Analyst™ data system (Applied Biosystem, version 1.2).
Two consecutive microdialysis samples with less then 50% variation were taken as baseline levels and set at 100%. Changes in acetylcholine concentration were expressed as percent of baseline within the same subject.

Cc1ccc(Sc2ccccc2C2CCNCC2)cc1 [compound I, 4-[2-(4-methylphenylsulfanyl)-phenyl]piperidine]
Extracellular level of acetylcholine [1]: increase
Extracellular level of acetylcholine [2]: increase
